# Patent US20240139185A1, “COMPOUNDS THAT PARTICIPATE IN COOPERATIVE BINDING AND USES THEREOF” (Revolution Medicines, Inc., priority 2018, published 2024)
# Legend:
# cyclophilin A (CYPA) = cyclophilin A (CYPA) (Homo sapiens, UniProt P62937); assay: CYPA-compound binary complex formation by SPR; details: read-out: CYPA Binding Affinity
# Outline: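 CypA-Avi captured on a Biotin CAPture chip (4 μg/ml), reference flow cell subtracted. Compounds injected as 10-point 2-fold dilutions from 50 μM in HBS-P+ pH7.4 with 2% DMSO; 60 s association and 60 s dissociation, solvent-corrected. Affinity obtained by steady-state fitting.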
# [1] = target: T1, BRAF-GTP-KRAS-G12C complex (Homo sapiens, UniProt P01116+P62937, G12C); assay: KRAS-BRAF complex disruption through competition with CYPA-compound by TR-FRET; details: biochemical BRAF-KRAS G12C-GTP disruption assay EC50, with CYPA
# T1 construct: 50 nM of His6-KRas G12C-GTP (1-169); 500 nM of tagless CypA (1-165)
# Outline: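 His6-KRAS G12C-GTP (1-169, 50 nM) with tagless CypA (1-165, 500 nM) was incubated with compound for 3 h at room temperature in pH 7.3 Hepes/NaCl/MgCl2 buffer containing GST-BRAF RBD. Anti-His Eu (10 nM) and anti-GST APC (50 nM) were then added for 1.5 h, and the 665/615 nm TR-FRET ratio was read. EC50 from 4-parameter fit; for specificity, wild-type KRAS replaced G12C, and CypA was omitted to test presenter dependence.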
# pERK in H358 cells = assay: pERK inhibition in H358 cells; format: cell-based, human; details: 4 hours treatment, read-out: Cellular pERK inhibition
# Outline: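 Human lung cancer H358 cells in RPMI/10% FBS were exposed to compound or DMSO for 4 h. Fixed and permeabilized cells were stained overnight at 4 C with anti-phospho-ERK1/2 (Thr202/Tyr204). Near-infrared imaging read the pERK signal at 800 nm, with DRAQ5 at 700 nm.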
Kd (cyclophilin A (CYPA)) [µM],EC50 [1] [nM],IC50 (pERK in H358 cells) [µM],Structure (SMILES)
≤ 5,≤ 500,1 to 10,"CC1COC(=O)C2CCCN(N2)C(=O)C(NC(=O)C(C(C)C)N(C)C(=O)C2CN(C(=O)CCl)C2)Cc2cc(O)cc(c2)-c2ccc3c(S(C)(=O)=O)cn(c3c2)C1 (single isomer, unassigned) [Compound 110]"
≤ 5,≤ 500,1 to 10,CC1COC(=O)C2CCCN(N2)C(=O)C(NC(=O)C(C(C)C)N(C)C(=O)C2CN(C(=O)CCl)C2)Cc2cc(O)cc(c2)-c2ccc3c(c2)c(cn3CC2COC2)C1 (mixture of isomers) [Compound 226]
